Converted amounts (≈) assume the structure as drawn.
Tests used:
[1] = Solubility enhancement of vitamin D3 by PEHAM dendritic polymers (HPLC); assay type: physicochemical; conditions: pure Active Material control without dendrimer; detection limit
Experimental: An excess of the cosmetic and nutrient Active Material, vitamin D3, (Sigma) was added to vials containing PEHAM dendritic polymers G=1.0 and G=2.0 with PETGE or TMPTGE cores and amine surfaces, partially PEGylated (25% PEG-550) amine surfaces, or carboxylate surfaces, dissolved in 20% (v/v) aqueous methanol at 1 wt % concentrations. These suspensions were briefly ultrasonicated in a water bath at RT, then incubated overnight at 32° C. and 100 rpm in a shaking water bath, and allowed to equilibrate at RT. The suspensions were filtered through a 0.2-μm Nylon syringe filter to remove not encapsulated Active Material. Solvent was removed and the residue redispersed in DI water. The samples were analyzed for dendrimer-associated vitamin D3 by HPLC. Association results are expressed in ng Active Material per mL solution. […] The pure Active Material as control remains below detection limit of 50 ng/mL.

[2] = Aqueous solubility of paclitaxel with PEHAM dendritic polymer (HPLC); assay type: physicochemical; conditions: DI water without dendrimer, thermodynamic from solid
Experimental: The sample was subjected to brief ultrasonication and heating at 50° C. for 10 mins., followed by overnight shaking at RT. The sample was then centrifuged for 5 mins. and the paclitaxel content measured by HPLC.

| solubility [2] [µg/mL] | Structure (SMILES) | vitamin D3 solubility [1] [µg/mL] |
| --- | --- | --- |
|  | C=C1CC[C@H](O)C/C1=C/C=C1\CCC[C@]2(C)[C@@H]([C@H](C)CCCC(C)C)CC[C@@H]12 [vitamin D3] | < 0.05 |
| 0.3 (≈ 0.351 µM) | CC(=O)O[C@H]1C(=O)[C@@]2(C)[C@H]([C@H](OC(=O)c3ccccc3)[C@]3(O)C[C@H](OC(=O)[C@H](O)[C@@H](NC(=O)c4ccccc4)c4ccccc4)C(C)=C1C3(C)C)[C@]1(OC(C)=O)CO[C@@H]1C[C@@H]2O [paclitaxel] |  |

Reference: patent US20090324742A1, “Peham dendrimers as excipients” (priority 2006, published 2009)
